In patent US6649793B1, “Process for the preparation of a N,N-diamino amino acid-β-hydroxy disuccinic acid” (Board of Trustees of Michigan State University, priority 2002, dated 2003):

Test: Potentiometric calcium titration with calcium-selective electrode (calcium binding / chelation)
Assay type: physicochemical
Conditions: Ca2+ binding; 50 mL of 200 ppm hardness solution at 25° C.; NH4Cl/NH4OH buffer pH=9.5, ionic strength 0.1M
Method: Calcium chloride dihydrate was purchased from Fisher Scientific. A stock solution of 0.01M […] (1000 ppm, hardness CaCO3) was prepared with distilled deionized water, and 0.03M NH4Cl/0.07M NH4OH buffer (pH=9.5, ionic strength of 0.1M). The later chemicals were obtained from Columbus Chemical Industries, Inc. Standard solution ranging from 200 ppm to 10 ppm was prepared by dilution of the stock solution with the buffer. A plot of the logarithm of calcium ion concentration vs the normalized potential was constructed prior to each titration (Rechnitz, G. A., et al., Anal. Chem. 40 696 (1968); and Nagarajan, M. K., et al., JAOCS 61 1475 (1984)). This was necessary to minimize the effect of signal fluctuations due to solution condition (ionic strength, pH, and the like). […]
The electrode was immersed in a 50 mL of 200 ppm hardness solution at 25° C., and the meter reading was taken while the solution was being stirred by magnet (Blay, J. A., et al., Anal. Lett. 4, 653 (1971)). The calcium binding solution of Compound II was added in small increments and the equilibrium-free calcium ion concentration were measured. When the meter reading indicated less than 10 ppm present in solution, the titration was stopped. […] Chelation constant (logK) of compound II was determined to be 4.23±0.09 according to the following equation [formula] […]

O=C(O)C(O)C(NCCCC[C@H](NC(C(=O)O)C(O)C(=O)O)C(=O)O)C(=O)O (stereo partly drawn) [compound II, 2N,6N-lysine-β-hydroxy disuccinic acid]
Chelation constant (logK): 4.23±0.09
